# Laboratory results as given in ChEMBL document CHEMBL1201862, “PubChem BioAssay data set” (2004).
#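 Results reflect a 48-hour exposure of cells in 96-well plates to compound at five concentrations. At the GI50, growth is halved.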 Active and inactive are the calls of the source. Rule as the data show it: active = GI50 up to about 1.1 µM and inactive = higher.
# Assays:
# Experiment in all cases: inhibition of tumour cell growth, NCI panel, 48 h
# SF-295 = system: SF-295
# SNB-75 = system: SNB-75
# K562 = system: K562
# NCI-H226 = system: NCI-H226
# OVCAR-8 = system: OVCAR-8
# TK-10 = system: TK-10
# CAKI-1 = system: CAKI-1
# MDA-MB-435 = system: MDA-MB-435
# LOX IMVI = system: LOX IMVI
# RXF 393 = system: RXF 393
# SNB-19 = system: SNB-19
# HT-29 = system: HT-29
# HL-60 = system: HL-60
# HCT-116 = system: HCT-116
# SW-620 = system: SW-620
# OVCAR-5 = system: OVCAR-5
# SN12C = system: SN12C
# 786-0 = system: 786-0
# CCRF-CEM = system: CCRF-CEM
# NCI/ADR-RES = system: NCI/ADR-RES
# EKVX = system: EKVX
# OVCAR-3 = system: OVCAR-3
# UACC-257 = system: UACC-257
# KM12 = system: KM12
# SR = system: SR
# HOP-62 = system: HOP-62
# NCI-H23 = system: NCI-H23
# MCF7 = system: MCF7
# Hs-578T = system: Hs-578T
# M14 = system: M14
# UACC-62 = system: UACC-62
# MDA-N = system: MDA-N
# DU-145 = system: DU-145
# SF-268 = system: SF-268
# ACHN = system: ACHN
# SK-MEL-5 = system: SK-MEL-5
# SK-MEL-2 = system: SK-MEL-2
# UO-31 = system: UO-31
# PC-3 = system: PC-3
# MOLT-4 = system: MOLT-4
# HCT-15 = system: HCT-15
# SF-539 = system: SF-539
# BT-549 = system: BT-549
# RPMI-8226 = system: RPMI-8226
# NCI-H460 = system: NCI-H460
# Malme-3M = system: Malme-3M
# SK-MEL-28 = system: SK-MEL-28
# SK-OV-3 = system: SK-OV-3
# MDA-MB-231 = system: MDA-MB-231
# IGROV-1 = system: IGROV-1
# A498 = system: A498
# U-251 = system: U-251
# COLO 205 = system: COLO 205
smiles,measurement,setting,value
N#Cc1nc(C2CCC(=O)O2)oc1N (stereo not drawn),GI50,SF-295,> 100 µM (inactive)
same,GI50,SNB-75,29 µM (inactive)
same,GI50,K562,> 100 µM (inactive)
same,GI50,NCI-H226,> 100 µM (inactive)
same,GI50,OVCAR-8,> 100 µM (inactive)
same,GI50,TK-10,> 100 µM (inactive)
same,GI50,CAKI-1,> 100 µM (inactive)
same,GI50,MDA-MB-435,> 100 µM (inactive)
same,GI50,LOX IMVI,72.9 µM (inactive)
same,GI50,RXF 393,> 100 µM (inactive)
same,GI50,SNB-19,> 100 µM (inactive)
same,GI50,HT-29,> 100 µM (inactive)
same,GI50,HL-60,> 100 µM (inactive)
same,GI50,HCT-116,83 µM (inactive)
same,GI50,SW-620,> 100 µM (inactive)
same,GI50,OVCAR-5,> 100 µM (inactive)
same,GI50,SN12C,> 100 µM (inactive)
same,GI50,786-0,> 100 µM (inactive)
same,GI50,CCRF-CEM,> 100 µM (inactive)
same,GI50,NCI/ADR-RES,> 100 µM (inactive)
same,GI50,EKVX,> 100 µM (inactive)
same,GI50,OVCAR-3,> 100 µM (inactive)
same,GI50,UACC-257,> 100 µM (inactive)
same,GI50,KM12,> 100 µM (inactive)
same,GI50,SR,> 100 µM (inactive)
same,GI50,HOP-62,> 100 µM (inactive)
same,GI50,NCI-H23,> 100 µM (inactive)
same,GI50,MCF7,> 100 µM (inactive)
same,GI50,Hs-578T,> 100 µM (inactive)
same,GI50,M14,> 100 µM (inactive)
same,GI50,UACC-62,> 100 µM (inactive)
same,GI50,MDA-N,> 100 µM (inactive)
same,GI50,DU-145,> 100 µM (inactive)
same,GI50,SF-268,> 100 µM (inactive)
same,GI50,ACHN,> 100 µM (inactive)
same,GI50,SK-MEL-5,> 100 µM (inactive)
same,GI50,SK-MEL-2,> 100 µM (inactive)
same,GI50,UO-31,> 100 µM (inactive)
same,GI50,PC-3,> 100 µM (inactive)
same,GI50,MOLT-4,> 100 µM (inactive)
same,GI50,HCT-15,> 100 µM
same,GI50,SF-539,> 100 µM (inactive)
same,GI50,BT-549,> 100 µM (inactive)
same,GI50,RPMI-8226,> 100 µM (inactive)
same,GI50,NCI-H460,> 100 µM (inactive)
same,GI50,Malme-3M,13.4 µM (inactive)
same,GI50,SK-MEL-28,> 100 µM (inactive)
same,GI50,SK-OV-3,> 100 µM (inactive)
same,GI50,MDA-MB-231,> 100 µM (inactive)
same,GI50,IGROV-1,> 100 µM (inactive)
same,GI50,A498,> 100 µM (inactive)
same,GI50,U-251,> 100 µM (inactive)
same,GI50,COLO 205,> 100 µM (inactive)
